Data: patent publication US20070155661A1, “Methods and compositions for modulating the development of stem cells” (THE BOARD of TRUSTEES of the LELAND STANDORD JUNIOR …, priority 2003, published 2007)

Test system: mouse ES cell-derived IPCCs
Test: Insulin production by mouse ES cell-derived insulin-producing cell clusters (IPCCs)
Assay type: cell-based
Description: In duplicate experiments, we detect approximately 6000 ng insulin/mg protein produced by mouse embryoid bodies treated with a sequence of growth factors including GDF8.

Substance: GDF8: BMP/TGF-beta family growth factor, ~80% identical to GDF11 in the mature region
- effect on insulin production (mouse ES cell-derived IPCCs): promotes insulin production
- insulin produced by mouse embryoid bodies (mouse embryoid bodies treated with a sequence of growth factors including GDF8, duplicate experiments): approximately 6000 ng insulin/mg protein
